From publication PMC5234788 (PLoS ONE, 2017)

How the values were obtained:
Format in all cases: in vivo
[1] = system: male CD-1 ICR mice; assay: Elevated plus-maze test; conditions: DZP 2 mg/kg, i.p., P < 0.05 vs control
Description: The elevated plus-maze test is widely used for the screening and evaluation of anxiolytic drugs. The apparatus consists of two open arms (30 cm × 5 cm) and two enclosed arms (30 cm × 5 cm × 15 cm), which is elevated 45 cm above the ground. The entire maze was made of clear Plexiglas and illuminated by four 30 W white lights with 300 lx light intensity arranged as a cross 100 cm above the maze. 48 male CD-1 ICR mice were randomly divided into either the vehicle group, one of three doses of l–THBr groups, or the diazepam group. 30 min after injection, mice were gently placed on the center platform facing an open arm, and the number of entries and the time spent in both arms were recorded by a video camera for 5 min. The results were expressed as the percentage of entries into the open arms (%) = (the number of entries into the open arms / the total number of entries into the four arms) × 100%; and the percentage of time spent in the open arms (%) = (time spent in the open arms / total time spent in the four arms) × 100%.
In a separate experiment, WAY100635 (a 5-HT1A antagonist) was used to test whether the anxiolytic-like activity of l-THBr is mediated by the activation of the 5-HT1A receptor. Forty male CD-1 ICR mice were randomly divided into one of four groups: vehicle, WAY100635 (3 mg/kg, i.p.), l–THBr (5 mg/kg, i.p.) or WAY100635 (3 mg/kg, i.p.) + l–THBr (5 mg/kg, i.p.). Mice were administered vehicle or WAY100635 followed by vehicle or l–THBr (5 mg/kg) injections 15 min later. The test was performed 30 min after the administration of l-THBr or vehicle.

[2] = system: male CD-1 ICR mice; assay: Locomotor activity test; conditions: DZP 2 mg/kg, i.p., 60 min
Description: The spontaneous activity video analysis system consists of 8 sound-attenuated chambers (40 cm × 40 cm × 65 cm) with a built-in infrared camera. (JL Behave, Shanghai Ji-Liang Software Technology Co., Ltd). During the behavioral tests, the experimenter was outside the testing room, and the chambers were cleaned between successive runs. Forty male CD-1 ICR mice were allowed to acclimate for three days in home cages and were handled for another three days to minimize stress after arrival in the animal facility. On the following day, after habituation to the activity chambers for 60 min, mice were administered vehicle, diazepam (DZP, 2 mg/kg, i.p.) or l–THBr (1, 5, or 10 mg/kg, i.p.) and immediately placed into the test chambers to record their locomotor activity for 60 min.

[3] = system: male CD-1 ICR mice; assay: Light-dark box test; conditions: DZP 2 mg/kg, 30 min before test, P < 0.05 vs vehicle
Description: The light-dark box test is a sensitive model to detect activity in disorders related to anxiety, based on the innate aversion of rodents to brightly lit areas and on their spontaneous exploratory behavior in response to a novel environment. The light-dark transition box is a polypropylene animal cage (44 cm × 21 cm × 21 cm), which is divided into two compartments, a light box (illuminated by a 60 W light source with 1000 lx light intensity) and a dark box. Forty-eight male CD-1 ICR mice were placed in the light box 30 min after l–THBr or DZP injection and allowed to move freely to both boxes for 5 min. The number of transitions between the two boxes were recorded by a video camera.

## CN1C(=O)CN=C(c2ccccc2)c2cc(Cl)ccc21 [Diazepam, reference compound]
[1]
  percentage of entries into the open arms: significant increase
  percentage of time spent in the open arms: significant increase
[2]
  influence on locomotor activity (travel distance): no influence
[3]
  number of transitions between the light/dark sides: increased
